# Measured values published in US12037612B2, “High throughput reaction assembly” (priority 2018, dated 2024).
# How the values were obtained:
# [1] = system: reverse transcriptase (Luna RT); assay: cDNA synthesis with dye in the cDNA reaction, read out by qPCR (GAPDH); assay type: biochemical; conditions: increasing dye in the cDNA reaction, final concentration 0.004%, 0.008%, 0.012%, 0.016%, 0.023%; Jurkat total RNA template
# Experimental: 5-log dilutions of Jurkat total RNA (1 ug, 100 ng, 10 ng, 1 ng, 100 pg) were used as the template RNA for cDNA synthesis using Luna RT in the presence of xylene cyanol at a final concentration of 0%, 0.004%, 0.008%, 0.012%, 0.016%, or 0.023%, or Xylene cyanol and tartrazine both in the concentration range described above. […] 10 minutes, and 95° C. 1 minute. 1 ul cDNA library was added to a qPCR reaction mixture containing Taq polymerase and specific primers were added to detect GAPDH.
# Taq polymerase = target: T1, Taq polymerase (Thermus aquaticus, UniProt P19821); assay: qPCR (GAPDH detection) with dye added directly into the qPCR reaction; assay type: biochemical; conditions: increasing dye in the qPCR reaction, final concentration 0.004%, 0.008%, 0.012%, 0.016%, 0.023%; Jurkat total RNA template
# T1 construct: purchased New England Biolabs, Ipswich, MA
# T1 sequence (P19821 whole entry): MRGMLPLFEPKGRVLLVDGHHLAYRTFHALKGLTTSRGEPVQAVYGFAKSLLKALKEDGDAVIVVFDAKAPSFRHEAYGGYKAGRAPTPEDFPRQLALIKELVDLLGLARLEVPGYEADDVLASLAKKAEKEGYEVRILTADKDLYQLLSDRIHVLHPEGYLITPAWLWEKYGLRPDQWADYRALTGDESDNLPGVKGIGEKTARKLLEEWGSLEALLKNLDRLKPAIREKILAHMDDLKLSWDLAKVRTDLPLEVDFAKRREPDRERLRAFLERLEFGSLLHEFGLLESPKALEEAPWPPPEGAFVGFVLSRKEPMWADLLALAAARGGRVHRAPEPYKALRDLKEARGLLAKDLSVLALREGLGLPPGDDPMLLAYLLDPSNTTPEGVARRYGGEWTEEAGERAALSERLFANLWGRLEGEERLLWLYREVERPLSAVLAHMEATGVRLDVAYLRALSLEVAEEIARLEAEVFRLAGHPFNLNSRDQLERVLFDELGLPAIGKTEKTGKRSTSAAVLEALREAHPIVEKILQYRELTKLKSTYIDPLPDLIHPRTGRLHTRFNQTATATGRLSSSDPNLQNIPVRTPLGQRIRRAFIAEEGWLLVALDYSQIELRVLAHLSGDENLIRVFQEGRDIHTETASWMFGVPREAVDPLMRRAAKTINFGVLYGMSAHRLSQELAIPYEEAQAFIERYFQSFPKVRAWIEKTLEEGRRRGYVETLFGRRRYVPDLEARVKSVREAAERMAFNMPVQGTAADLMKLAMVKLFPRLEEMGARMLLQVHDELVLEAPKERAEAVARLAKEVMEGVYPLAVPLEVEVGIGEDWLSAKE
# Experimental: Dyes at a concentration of 0.0003% in a qPCR mix were found not to inhibit Taq polymerase in a qPCR mix in a manner that was detrimental to the reaction. 5-log dilutions of Jurkat total RNA (1 ug, 100 ng, 10 ng, 1 ng, 100 pg) were used as the template RNA for cDNA synthesis using a commercially available thermostable reverse transcriptase (Luna RT). […] 10 minutes, and 95° C. 1 minute. 1 ul cDNA library was added to a qPCR reaction mixture containing Taq polymerase (Luna® Universal qPCR Master Mix (New England Biolabs, Ipswich, MA)) and specific primers were added to detect glyceraldehyde 3-phosphate dehydrogenase (GAPDH) in the presence of xylene cyanol at a final concentration of 0%, 0.004%, 0.008%, 0.012%, 0.016%, or 0.023%, or Xylene cyanol and tartrazine both in the concentration range described above.
structure (smiles),measurement,setting,value
CCN=C1C=CC(=C(c2ccc(NCC)c(C)c2)c2ccc(S(=O)(=O)[O-])cc2S(=O)(=O)O)C=C1C.[Na+] [xylene cyanol],Cq value / inhibition of the reverse transcriptase,[1],"did not change the Cq value, indicating that no detectable inhibition of the reverse transcriptase occurred"
same,Cq value in qPCR / inhibition of Taq polymerase,Taq polymerase,"higher Cq value, indicating stronger inhibition of Taq polymerase"
